Source: US11083197B2, “Herbicidal composition comprising chromone derivatives and a method for weed control” (INVESTIGACIONES BIOLÓGICAS EN AGROQUÍMICOS ROSARIO S.A., priority 2015, dated 2021)
Like-named read-outs stand apart in the source and are kept apart here. One block for each molecule: values may come before it.

How the values were obtained:
cucumber leaf disks = test: Cell death determination by Evans blue staining, leaf disks; type: cell-based; details: 7 days; for increase in relative cell death with respect to the control: 100 μM; for increase in relative cell death: 300 μM
Protocol: To evaluate cell death in roots, onion seeds were germinated and treated as described in postemergence assay with weed species. Onion seedlings were exposed to different doses of compounds of formulas III and IV (0, 100 and 300 μM) during 4 days. For the experiment with leaf disks 3-weeks-cucumber plants were used. One disk (1 cm) was placed in each well of a 12-well plate together with 1 mL of a 2% w/v sucrose/1 mM MES, pH 6.5 solution containing each of the compounds tested at the appropriate concentration (0, 100 or 300 μM) and acetone (1% v/v). Each assay was performed with leaf disks from different plants. Plates were sealed with Parafilm and incubated in a growth chamber at 21-27° C. with a 16/8 h light/dark cycle for 7 days.
Cell death was determined by Evans blue staining.^26 Root tips (5-mm sections) and leaf disks were incubated for 30 min in 0.25% w/v Evans blue aqueous solution at 25° C. on a rotary shaker. After staining, unbound dye was removed by extensive washing with deionized water. Three root tips (3 replicates) or one leaf disk (4 replicates) were ground in a tissue grind tube with 500 μL 1% w/v sodium dodecyl sulfate (SDS). The resulting suspension was centrifuged for 20 min at 20,000 g and the supernatant was used for dye quantification by monitoring the absorbance at 600 and 680 nm. Relative cell death was expressed as A600 for root tips and A600/A680 ratios for leaf disks.

ryegrass = test: Postemergence bioassay with ryegrass in Petri dishes; type: in vivo; details: Lolium multiflorum, post-emergence; 500 μM; day 6 (4 days after application); read-out: Growth inhibition (%) as percentage of control
Protocol: Plant length was measured at day 6 (4 days after application of the compounds)
Plant length's axis starts in 5 mm because seeds were pre-incubated in water, so all seedlings were around 5 mm long at the beginning of the treatment.

lettuce (Lactuca sativa) = test: Germination / dose-response bioassay with lettuce; type: in vivo; details: for Phytotoxicity at day 7, Lettuce: 1 mM, 24-well plates, rating scale of 0 to 5; for IC50 / inhibition at 1000 µg/mL: lettuce; for IC50: 7 days; for inhibition at 1000 µg/mL: 1 mg/mL, day 7; for lettuce germination: fractions at 1 mg/mL
Protocol: (§1) DCM extract of flowers of A. visnaga (1.6 g) was divided in two 800 mg halves and each one was subjected to column chromatography using an Isolera One system (Biotage), equipped with UV detector (302 and 365 nm) and automatic fraction collector. Separation was performed by normal-phase chromatography column using a SNAP Cartridge KP-Sil (37×157 mm, 50 μm irregular silica, 100 g, Biotage) and a pre-packaged SNAP Samplet Cartridge KP-Sil (37×17 mm, Biotage). A full gradient of hexane:ethyl acetate was used for elution, from 100:0 to 0:100 over 3000 ml. Flow was 40 ml/min and 25 ml fractions were collected. Equal fractions were combined based on similarities on their TLC and chromatogram profiles providing nineteen fractions named I to XIX. All fractions were evaluated for their phytotoxicity on germination bioassay of lettuce (L. sativa) and creeping bentgrass (A. stolonifera).
(§2) A filter paper and 5 lettuce or 10 mg of creeping bentgrass seeds were placed in each well of a 24-well plate. Stock solutions (10×) of test compounds were prepared in acetone. 180 μl of distilled water were added to each well together with 20 μl of stock solution or acetone in solvent control. Final concentration of acetone was 10% v/v. Plates were sealed with Parafilm, and incubated at 26° C. in a growth chamber set at 173 μmol m^−2 s^−1 continuous photosynthetically active radiation. Phytotoxic activity was qualitatively evaluated by visually comparing germination in each well with solvent control at 7 days. A qualitative estimation of phytotoxicity was obtained by using a rating scale of 0 to 5, where 0 was no effect, and 5 was no germination of seeds. This procedure was also used for testing the phytotoxicity of pure compounds on ryegrass. On this experiment 12-well plates were used. 10 seeds were placed per well and final volume was 300 μl in each one. During dose-response bioassays used for IC50 determination, germination percentage and length of plants were measured at 7 days in order to determine the concentration required for 50% germination and growth inhibition (IC50). All experiments were done in triplicate.
Using method described in Example 1, compounds of Formula III and IV above were tested against lettuce and ryegrass.
The percentage of germination and length of plants were determined at 7 days. Data represents means of three replicates±SD. The IC50 values, for both germination and growth inhibition by compounds III and IV on lettuce and ryegrass, were obtained from estimated parameters in the regression curves.
Statistical Analysis. Data from dose-response experiments were analyzed by a log-logistic model^37-38 using the dose-response curve module^39 of R software version 2.2.1.^40 Concentrations required for 50% germination or growth inhibition relative to control (IC50 values) were obtained from estimated parameters in the regression curves. The standard error (SE) of each estimation is provided. Data from phytotoxicity bioassays in the laboratory and greenhouse, ROS and cell death quantifications were analyzed by ANOVA using the InfoStat statistical software version 2015,^41 and Scheffe's test was employed to compare the means at α=0.05.

lettuce = test: Postemergence bioassay with lettuce in Petri dishes; type: in vivo; details: Lactuca sativa, post-emergence, day 6 (4 days after postemergence application), read-out: Average growth inhibition (%) as percentage of control; for inhibition at 500 µM: 0.50 mM; for inhibition at 1000 µM: 1.00 mM; for inhibition at 1500 µM: 1.50 mM
Protocol: Compounds of formula III and IV above were tested at different concentrations in a postemergence bioassay (in Petri dishes) against lettuce. Lettuce seeds were pre-incubated in Petri dishes with a filter paper and water for 2 days. After that, seedlings (15 mm approx.) were moved to a new Petri dish containing 4 mL of an aqueous solution of each compound or commercial herbicide. Plants length was measured at day 6 (4 days after postemergence application of the compounds). The results were compared to those obtained with acetochlor and glyphosate.
Plant length's axis starts in 15 mm because seeds were pre-incubated in water, so all seedlings were around 15 mm long at the beginning of the treatment.

[1] = tested on: creeping bentgrass (A. stolonifera); test: Germination bioassay with creeping bentgrass; type: in vivo, Agrostis stolonifera; set-up: key to Phytotoxicity at day 7, Creeping bentgrass: 0 = no effect; 5 = no growth or germination; details: for Phytotoxicity at day 7, Creeping bentgrass: 1 mM, 24-well plates, rating scale of 0 to 5; for inhibition at 1000 µg/mL: Agrostis stolonifera, 168 h, creeping bentgrass, 1 mg/mL, day 7; for creeping bentgrass germination: fractions at 1 mg/mL
Protocol: as §1, §2

[2] = Lactuca sativa, 168 h, read-out: IC50(μM) ± SE to inhibit germination
[3] = Lactuca sativa, 168 h, read-out: IC50(μM) ± SE to inhibit growth

IC50 (lettuce (Lactuca sativa); [2]): 700 µM
IC50 (lettuce (Lactuca sativa); read-out: IC50(μM) ± SE to inhibit germination): 701 ± 93 µM
SMILES: COc1c2occc2c(OC)c2c(=O)cc(C)oc12 [Formula III, 4,9-dimethoxy-7-methyl-5H-furo[3,2-g]chromen-5-one]
increase in relative cell death with respect to the control (cucumber leaf disks): ~35%
increase in relative cell death (cucumber leaf disks): 3.5 fold
inhibition at 500 µM (ryegrass): 25%
Phytotoxicity at day 7, Lettuce (lettuce (Lactuca sativa)): 3
IC50 (lettuce (Lactuca sativa); [3]): 110 µM
inhibition at 1000 µg/mL (lettuce (Lactuca sativa); Lactuca sativa, 168 h): 100%
lettuce germination (lettuce (Lactuca sativa)): completely inhibited
inhibition at 500 µM (lettuce): 22%
inhibition at 1000 µM (lettuce): 85%
inhibition at 1500 µM (lettuce): 91%
Phytotoxicity at day 7, Creeping bentgrass [1]: 5
inhibition at 1000 µg/mL [1]: 100%
creeping bentgrass germination [1]: completely inhibited

SMILES: COc1c2ccoc2cc2oc(C)cc(=O)c12 [Formula IV, 4-methoxy-7-methyl-5H-furo[3,2-g]chromen-5-one]
increase in relative cell death with respect to the control (cucumber leaf disks): ~35%
increase in relative cell death (cucumber leaf disks): 3.5 fold
inhibition at 500 µM (ryegrass): 66%
Phytotoxicity at day 7, Lettuce (lettuce (Lactuca sativa)): 3
IC50 (lettuce (Lactuca sativa); [2]): 740 µM
IC50 (lettuce (Lactuca sativa); [3]): 170 µM
inhibition at 1000 µg/mL (lettuce (Lactuca sativa); Lactuca sativa, 168 h): 100%
lettuce germination (lettuce (Lactuca sativa)): completely inhibited
IC50 (lettuce (Lactuca sativa); read-out: IC50(μM) ± SE to inhibit growth): 175 ± 16 µM
inhibition at 500 µM (lettuce): 22%
inhibition at 1000 µM (lettuce): 85%
inhibition at 1500 µM (lettuce): 91%
Phytotoxicity at day 7, Creeping bentgrass [1]: 5
inhibition at 1000 µg/mL [1]: 100%
creeping bentgrass germination [1]: completely inhibited
